What was measured:
[1] = Optical and physical properties of the two-photon fluorescent probe in MOPS buffer; assay type: physicochemical; settings: absence of Zn2+
Description: In order to investigate optical and physical properties of the two-photon fluorescent probe (SZn-Mito), the following experiment was carried out by using a MOPS (3-(N-morpholino)propane sulfonic acid) buffer.
(§1) It was predicted as a result of blocking the photo-induced electron transfer (PeT) process caused by complexation with metal ions.

[2] = One- and two-photon fluorescence titration with free Zn2+ (dissociation constant, fluorescence enhancement factor); assay type: binding
Description: as §1
As a result of measuring a fluorescence increase factor (FEF=(F−Fmin)/Fmin) value of the two-photon fluorescent probe (SZn-Mito) by one- and two-photon processes, the FEF value was represented as 7 in the presence of excessive zinc ions (Table 1).
MOPS (4-morpholinepropanesulfonic acid) buffers (30 mM, pH 7.2, 0.1 M KCl) including varying amounts of ZnSO4 and 10 mM EGTA (ethylene glycol-bis(2-aminoethylether)-N,N,N′,N′-tetraacetic acid) were prepared.
The concentration of free Zn^2+ ([Zn^2+]free) was calculated from KZn-EGTA^app,[EGTA] total, and [Zn^2+]total by using following Equation 1:
After that, the stability constant of a Zn^2+ complex of EGTA (KZn-EGTA) was obtained by a conventional method known in the art. As a result, for EGTA (pH 7.2, 0.1 M KCl, 25[…]), pK1=9.40, pK2=8.79, pK3=2.70, and log KZn-EGTA=12.6 were obtained.
All protonation constants at 0.1 M ion strength workout were corrected upward by 0.11, [EGTA]total was fixed at 10 mM, and [Zn^2+]total was in the range from 0 to 9.5 mM.
In order to clearly determine a dissociation constant of the two-photon fluorescent probe, FIG. 2c as a fluorescence titration curve was obtained from FIG. 2b by using following Equation 2.
wherein F is a fluorescence intensity. Fmax is a maximum fluorescence intensity, Fo is a fluorescence intensity in the absence of Zn^2+, and [Zn^2+]free is a concentration of free Zn^2+.
Kd values that well complies with the titration curve (FIG. 2c) according to Equation 2 were calculated by using a commercial Origin software. […] A two-photon excitation fluorescence titration curve was obtained, which was fitted to Equation 2 (FIGS. 2c and 2d).

[3] = Selectivity for metal cations in MOPS buffer; assay type: physicochemical; settings: MOPS buffer pH 7.2, 1.0 μM probe
Description: The selectivity for metal cations was determined by using the MOPS buffer (30 mM MOPS, 100 mM KCl, 10 mM EGTA, pH 7.2) including the two-photon fluorescent probe. […] However, because there are very little metal ions such as Co^2+, Ni^2+ and Cu^2+ inside the cells, the two-photon fluorescent probe of the present invention has an advantage that it can detect zinc ions (Zn^2+) without the interference caused by competition with other metal ions.

[4] = Effect of pH on one-photon fluorescence intensity; assay type: physicochemical; settings: physiological pH; absence and presence of free Zn2+
[5] = system: HeLa cells; assay: Toxicity test using a CCK-8 kit; assay type: cell-based
From the text: In order to confirm whether the two-photon fluorescent probe of the present invention can detect intracellular zinc ions, the effect of the two-photon fluorescent probe (SZn-Mito) on the cells was examined by the following toxicity test.

[6] = system: HeLa cells; assay: Light stability of TPEF intensity in labeled HeLa cells; assay type: cell-based; settings: exposure 60 min
[7] = system: zinc ions within the mitochondria of HeLa cells; assay: Two-photon microscopy monitoring of zinc ion changes in living HeLa cells; assay type: cell-based
Description: TPEF images were collected at a range from 425-575 nm (fs pulses, 760 nm excitation conditions);
When DTDP (2,2′-dithiodipyridine; […]), reagent capable of inducing dissociation of Zn^2+ ions from Zn^2+-binding proteins, was added to the HeLa cells labeled with the two-photon fluorescent probe (SZn-Mito), the TPEF intensity was increased. When CCCP (carbonyl cyanide m-chlorophenylhydrazone; […]), a compound capable of disrupting a transmembrane potential difference of the mitochondria and increasing the release of cations within the mitochondria, was added thereto, the TPEF intensity was decreased. Also, when the HeLa cells were treated with […] (2-mercaptopyridine N-oxide), a reagent capable of delivering Zn^2+ to the cytoplasm, the TPEF intensity was increased, and when they were treated with CCCP, the TPEF intensity was decreased (FIG. 1).

CN(CC(=O)NCC[P+](c1ccccc1)(c1ccccc1)c1ccccc1)c1ccc2cc(-c3nc4ccc(NCCN(Cc5ccccn5)Cc5ccccn5)cc4s3)ccc2c1 [SZn-Mito]
λmax(1), one-photon absorption spectra ([1]; 30 mM MOPS, 100 mM KCl, 10 mM EGTA, pH 7.2): 388 nm
λmax fl, one-photon emission spectra ([1]; MOPS buffer pH 7.2): 500 nm
10^−4 ε, molar excitation coefficient ([1]; MOPS buffer pH 7.2, value is 10^−4 ε): 1.87 M^−1cm^−1
F, fluorescence quantum yield ([1]; MOPS buffer pH 7.2, ±15%): 0.15
detection limit for Zn2+ ([2]; from fluorescence titration): nM range
FEF, fluorescence enhancement factor (F−Fmin)/Fmin, one-photon process ([2]; one-photon, presence of excessive zinc ions): 7
FEF, fluorescence enhancement factor (F−Fmin)/Fmin, two-photon process ([2]; two-photon, presence of excessive zinc ions): 7
fluorescence in the presence of Co2+, Ni2+ and Cu2+ [3]: fluorescence was decreased
selectivity for Cd2+ [3]: relatively high selectivity for Cd^2+
selectivity for Zn2+ compared with Na+, K+, Ca2+, Mg2+, Mn2+, Fe2+ and Fe3+ [3]: higher selectivity for Zn^2+
reaction to pH (fluorescence intensity) [4]: unreacted at physiological pH
toxicity to cells (CCK-8 kit) [5]: negligible and extremely low toxicity
change of TPEF intensity under continuous fs-pulse radiation (light stability) [6]: not decreased at all
TPEF intensity after treatment with Zn2+ and pyrithione ([7]; HeLa cells, 100 mM Zn2+ and 100 mM pyrithione): increased
TPEF intensity after addition of CCCP ([7]; labeled HeLa cells after DTDP, CCCP 10 mM): decreased
TPEF intensity after addition of DTDP ([7]; labeled HeLa cells, DTDP 150 mM): increased

— patent US9006452B2, “Method for imaging zinc activation within a mitochondrion using a two-photon fluorescent probe, and method for manufacturing the two-photon fluorescent probe” (AJOU University Industry-Academic Cooperation Foundation, priority 2011, dated 2015)
